Measured values: ChEMBL document CHEMBL4020783, “Cytotoxic pterosins from Pteris multifida roots against HCT116 human colon cancer cells” (Bioorg Med Chem Lett, 2017)
Active and inactive are the calls of the source. The rule behind the calls is not given here.

What was measured:
HCT-116 [1] = assay: Cytotoxicity against human HCT116 cells assessed as reduction in cell viability after 48 hrs by MTT assay; assay type: functional, cell-based; settings: HCT-116, 48 h
HCT-116 [2] = assay: Induction of apoptosis in human HCT116 cells assessed as increase in caspase-9 protein expression after 48 hrs by Western blot analysis; assay type: functional, cell-based
HCT-116 [3] = assay: Induction of apoptosis in human HCT116 cells assessed as increase in cleaved caspase-9 protein expression after 48 hrs by Western blot analysis; assay type: functional, cell-based
HCT-116 [4] = assay: Induction of apoptosis in human HCT116 cells assessed as early apoptotic cells at 10 uM after 48 hrs by Annexin-V/propidium iodide staining-based flow cytometric analysis (reference value: 4.2%); assay type: functional
HCT-116 [5] = assay: Induction of apoptosis in human HCT116 cells assessed as late apoptotic cells at 10 uM after 48 hrs by Annexin-V/propidium iodide staining-based flow cytometric analysis (reference value: 9.3%); assay type: functional
HCT-116 [6] = assay: Induction of apoptosis in human HCT116 cells assessed as early apoptotic cells at 50 uM after 48 hrs by Annexin-V/propidium iodide staining-based flow cytometric analysis (reference value: 4.2%); assay type: functional
HCT-116 [7] = assay: Induction of apoptosis in human HCT116 cells assessed as late apoptotic cells at 50 uM after 48 hrs by Annexin-V/propidium iodide staining-based flow cytometric analysis (reference value: 9.3%); assay type: functional
HCT-116 [8] = assay: Induction of morphological changes in human HCT116 cells assessed as cell rounding and shrinkage; assay type: functional, cell-based

SMILES | IC50 (HCT-116 [1]) | also measured
Cc1cc2c(c(C)c1CCO)C(=O)C(C)(C)[C@@H]2O | 184 µM | 
Cc1cc2c(c(C)c1CCO)C(=O)[C@](C)(CO)[C@@H]2O | 106 µM | 
O=c1[nH]cc(F)c(=O)[nH]1 [FLUOROURACIL] | 41.9 µM | 
Cc1cc2c(c(CO)c1CCO[C@@H]1O[C@H](CO)[C@@H](O)[C@H](O)[C@H]1O)C(=O)C(C)(C)[C@@H]2O | 81.2 µM | 
Cc1cc2c(c(C)c1CCO)C(=O)[C@H](C)[C@@H]2O | 253 µM | 
Cc1cc2c(c(C)c1CCO)C(=O)[C@@H](C)[C@@H]2O[C@@H]1O[C@H](COC(=O)/C=C/c2ccc(O)cc2)[C@@H](O)[C@H](O)[C@H]1O | 17.2 µM | 
Cc1cc2c(c(C)c1CCO)C(=O)[C@H](C)C2 | 50.1 µM | 
Cc1cc2c(c(C)c1CCO[C@@H]1O[C@H](CO)[C@@H](O)[C@H](O)[C@H]1O)C(=O)[C@H](C)C2 | 80.7 µM | 
CO[C@@H]1c2cc(C)c(CCO)c(C)c2C(=O)[C@H]1C | 79.4 µM | 
Cc1cc2c(c(C)c1CCO)C(=O)[C@@H](C)[C@@H]2O | 72.9 µM | 
Cc1cc2c(c(CO)c1CCO)C(=O)C(C)(C)[C@@H]2O | 120 µM | 
Cc1cc2c(c(C)c1CCO)C(=O)[C@@H](C)[C@@H]2O[C@@H]1O[C@H](CO)[C@@H](OC(=O)/C=C/c2ccc(O)c(O)c2)[C@H](O)[C@H]1O | 8 µM | Activity (HCT-116 [2]): Dose-dependent effect; Activity (HCT-116 [3]): Dose-dependent effect; Activity (HCT-116 [4]): 6.2%; Activity (HCT-116 [5]): 20.9%; Activity (HCT-116 [6]): 17.1%; Activity (HCT-116 [7]): 31.6%; Activity (HCT-116 [8]): Active
Cc1cc2c(c(C)c1CCO)C(=O)[C@@H](C)[C@@H]2O[C@@H]1O[C@H](CO)[C@@H](O)[C@H](O)[C@H]1O | 32.9 µM | 
